Reference: patent US20180077929A1, “METHODS AND SYSTEMS FOR TREATING MEDICAL DEVICES AND FLUIDS” (priority 2016, published 2018)
Marks after values point to notes of the source that are not given here.

Experiment: Kinetics of removal of LPS with different agitation techniques and stearate salts
Assay type: biochemical
Conditions: for Endotoxin Detected: 5 mL SRW, baseline 1,502 EU; for Percent (%) Removed: SRW baseline 1,502 EU
Protocol: 5 mL of SRW was added to each of the tubes. Each solution was tested for endotoxin removal after agitation based on with sonication, vortexing, or test tube rolling. Sonication samples were sonicated at each indicated time interval for 30 seconds at a magnitude of 30. Vortex samples were vortexed at each indicated time interval for 30 seconds at 2500 RPM. Rolling samples were constantly rolling at 10 rpm. The samples were tested on the MCS for endotoxin at 1 minute, 20 minutes, 40 minutes, 60 minutes, and 80 minutes.

Compound | Endotoxin Detected (Rolling, 1 minute) | Percent (%) Removed (Rolling, 1 minute) [%] | Endotoxin Detected (Rolling, 20 minutes) | Percent (%) Removed (Rolling, 20 minutes) [%] | Endotoxin Detected (Rolling, 40 minutes) | Percent (%) Removed (Rolling, 40 minutes) [%] | Endotoxin Detected (Rolling, 60 minutes) | Percent (%) Removed (Rolling, 60 minutes) [%] | Endotoxin Detected (Rolling, 80 minutes) | Percent (%) Removed (Rolling, 80 minutes) [%] | Endotoxin Detected (Sonication, 1 minute) [EU] | Percent (%) Removed (Sonication, 1 minute) [%] | Endotoxin Detected (Sonication, 20 minutes) [EU] | Percent (%) Removed (Sonication, 20 minutes) [%] | Endotoxin Detected (Sonication, 40 minutes) [EU] | Percent (%) Removed (Sonication, 40 minutes) [%] | Endotoxin Detected (Sonication, 60 minutes) [EU] | Percent (%) Removed (Sonication, 60 minutes) [%] | Endotoxin Detected (Sonication, 80 minutes) [EU] | Percent (%) Removed (Sonication, 80 minutes) [%] | also measured
CCCCCCCCCCCCCCCCCC(=O)[O-].[Al+3].[OH-].[OH-] [Aluminum Monostearate] | 221* EU | 85.3 | 1,260 EU | 16.1 | 1,240 EU | 17.4 | 672 EU | 55.3 | 1,220 EU | 18.8 | 626 | 58.3 | 406 | 73 | 375 | 75 | 434 | 71.1 | 291 | 80.6 | Endotoxin Detected (Vortexing, 1 minute): 817 EU; Percent (%) Removed (Vortexing, 1 minute): 45.6%; Endotoxin Detected (Vortexing, 20 minutes): 849 EU; Percent (%) Removed (Vortexing, 20 minutes): 43.5%; Endotoxin Detected (Vortexing, 40 minutes): 786 EU; Percent (%) Removed (Vortexing, 40 minutes): 47.7%; Endotoxin Detected (Vortexing, 60 minutes): 801 EU; Percent (%) Removed (Vortexing, 60 minutes): 46.7%; Endotoxin Detected (Vortexing, 80 minutes): 757 EU; Percent (%) Removed (Vortexing, 80 minutes): 49.6%
Magnesium Stearate | 1,060 EU | 29.4 | 1,120 EU | 25.4 | 1,060 EU | 29.4 | 1,120 EU | 25.4 | 1,190 EU | 20.8 | 743 | 50.5 | 716 | 52.3 | 824 | 45.1 | 884 | 41.1 | 703 | 53.2 | Endotoxin Detected (Vortexing, 1 minute): 884 EU; Percent (%) Removed (Vortexing, 1 minute): 41.1%; Endotoxin Detected (Vortexing, 20 minutes): 1,000 EU; Percent (%) Removed (Vortexing, 20 minutes): 33.4%; Endotoxin Detected (Vortexing, 40 minutes): 901 EU; Percent (%) Removed (Vortexing, 40 minutes): 40%; Endotoxin Detected (Vortexing, 60 minutes): 958 EU; Percent (%) Removed (Vortexing, 60 minutes): 36.2%; Endotoxin Detected (Vortexing, 80 minutes): 1,060 EU; Percent (%) Removed (Vortexing, 80 minutes): 29.4%
